This assay deals with MCH receptor (Homo sapiens, UniProt Q99705). The assay is described as follows: High throughput functional screening FLIPR/FDSS6000: inhibition of MCH-evoked intracellular Ca2+ changes. As to conditions: class by percent of control at 10^-7 M or IC50. It is filed as cell-based. The method in brief:
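Cells expressing constitutively active MCH receptor, loaded with 4 μM Fluo4-AM for 1 h at 37 °C, were pretreated 3 min with compound, then challenged with MCH (50 nM for antagonist testing). MCH-evoked [Ca2+]i transients followed by FLIPR or FDSS (ex 488/em 530 nm) over 290 s.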

Consider `Cc1ccccc1CNC(=S)NC[C@H]1CC[C@@H](Nc2nc(N(C)C)c3ccccc3n2)CC1` [compound 727], for which the class is listed as 3 (Class 3: The value of percent of control at 10^−7 M was more than 60% or the value of IC50 was more than 200 nM.).
`COc1ccc(CNC(=S)NC[C@H]2CC[C@@H](Nc3nc(N(C)C)c4ccccc4n3)CC2)cc1OC` [compound 728]: the class is 3 (Class 3: The value of percent of control at 10^−7 M was more than 60% or the value of IC50 was more than 200 nM.).
Consider `CN(C)c1nc(N[C@H]2CC[C@@H](CNC(=S)NCc3cccc(Cl)c3)CC2)nc2ccccc12` [compound 729], for which the class is given as 3 (Class 3: The value of percent of control at 10^−7 M was more than 60% or the value of IC50 was more than 200 nM.).
For `CCOC(=O)c1cccc(NC(=S)NC[C@H]2CC[C@@H](Nc3nc(N(C)C)c4ccccc4n3)CC2)c1` [compound 730] the value was 3 (Class 3: The value of percent of control at 10^−7 M was more than 60% or the value of IC50 was more than 200 nM.); for `CCc1cccc(NC(=S)NC[C@H]2CC[C@@H](Nc3nc(N(C)C)c4ccccc4n3)CC2)c1` [compound 731], 3 (Class 3: The value of percent of control at 10^−7 M was more than 60% or the value of IC50 was more than 200 nM.); for `CN(C)c1nc(N[C@H]2CC[C@@H](CNC(=S)NCc3cccc(F)c3)CC2)nc2ccccc12` [compound 732], 3 (Class 3: The value of percent of control at 10^−7 M was more than 60% or the value of IC50 was more than 200 nM.).
For `COc1cccc(CNC(=S)NC[C@H]2CC[C@@H](Nc3nc(N(C)C)c4ccccc4n3)CC2)c1` [compound 733] the value was 3 (Class 3: The value of percent of control at 10^−7 M was more than 60% or the value of IC50 was more than 200 nM.); for `Cc1cccc(CNC(=S)NC[C@H]2CC[C@@H](Nc3nc(N(C)C)c4ccccc4n3)CC2)c1` [compound 734], 3 (Class 3: The value of percent of control at 10^−7 M was more than 60% or the value of IC50 was more than 200 nM.).
For `CN(C)c1nc(N[C@H]2CC[C@@H](CNC(=S)Nc3ccc(Br)c(Cl)c3)CC2)nc2ccccc12` [compound 735] the value was 3 (Class 3: The value of percent of control at 10^−7 M was more than 60% or the value of IC50 was more than 200 nM.); for `Cc1cc(NC(=S)NC[C@H]2CC[C@@H](Nc3nc(N(C)C)c4ccccc4n3)CC2)ccc1Br` [compound 736], 3 (Class 3: The value of percent of control at 10^−7 M was more than 60% or the value of IC50 was more than 200 nM.); for `CN(C)c1nc(N[C@H]2CC[C@@H](CNC(=S)Nc3ccc(Cl)cc3C(F)(F)F)CC2)nc2ccccc12` [compound 737], 3 (Class 3: The value of percent of control at 10^−7 M was more than 60% or the value of IC50 was more than 200 nM.).
Consider `CCCCCCCCCCc1ccc(NC(=S)NC[C@H]2CC[C@@H](Nc3nc(N(C)C)c4ccccc4n3)CC2)cc1` [compound 738], for which the class is reported as 3 (Class 3: The value of percent of control at 10^−7 M was more than 60% or the value of IC50 was more than 200 nM.).
For `Cc1cc(F)ccc1NC(=S)NC[C@H]1CC[C@@H](Nc2nc(N(C)C)c3ccccc3n2)CC1` [compound 739] the value was 3 (Class 3: The value of percent of control at 10^−7 M was more than 60% or the value of IC50 was more than 200 nM.).
For `CN(C)c1nc(N[C@H]2CC[C@@H](CNC(=S)Nc3ccc(Oc4ccc([N+](=O)[O-])cc4)cc3)CC2)nc2ccccc12` [compound 740] the value was 3 (Class 3: The value of percent of control at 10^−7 M was more than 60% or the value of IC50 was more than 200 nM.).
For `CN(C)c1nc(N[C@H]2CC[C@@H](CNC(=S)Nc3ccc(Sc4ccc([N+](=O)[O-])cc4)cc3)CC2)nc2ccccc12` [compound 741] the value was 3 (Class 3: The value of percent of control at 10^−7 M was more than 60% or the value of IC50 was more than 200 nM.); for `CN(C)c1nc(N[C@H]2CC[C@@H](CNC(=S)Nc3ccc(S(N)(=O)=O)cc3)CC2)nc2ccccc12` [compound 742], 3 (Class 3: The value of percent of control at 10^−7 M was more than 60% or the value of IC50 was more than 200 nM.).
On to `COc1ccc(NC(=S)NC[C@H]2CC[C@@H](Nc3nc(N(C)C)c4ccccc4n3)CC2)c(C)c1` [compound 743], for which the class was 2 (Class 2: The value of percent of control at 10^−7 M was from 40% to 60% or the value of IC50 was from 50 nM to 200 nM.).
The result for `Cc1ccc(CCNC(=S)NC[C@H]2CC[C@@H](Nc3nc(N(C)C)c4ccccc4n3)CC2)cc1` [compound 744] reads 3 (Class 3: The value of percent of control at 10^−7 M was more than 60% or the value of IC50 was more than 200 nM.); that for `CN(C)c1nc(N[C@H]2CC[C@@H](CNC(=S)Nc3ccc(Oc4ccccc4)cc3)CC2)nc2ccccc12` [compound 745], 3 (Class 3: The value of percent of control at 10^−7 M was more than 60% or the value of IC50 was more than 200 nM.); that for `COc1cc(OC)c(NC(=S)NC[C@H]2CC[C@@H](Nc3nc(N(C)C)c4ccccc4n3)CC2)cc1Cl` [compound 746], 3 (Class 3: The value of percent of control at 10^−7 M was more than 60% or the value of IC50 was more than 200 nM.).
The result for `CN(C)c1nc(N[C@H]2CC[C@@H](CNC(=S)Nc3ccc4c(c3)CCC4)CC2)nc2ccccc12` [compound 747] reads 3 (Class 3: The value of percent of control at 10^−7 M was more than 60% or the value of IC50 was more than 200 nM.).
As for `CN(C)c1nc(N[C@H]2CC[C@@H](CNC(=S)NC3CCCCCC3)CC2)nc2ccccc12` [compound 748], the class is 3 (Class 3: The value of percent of control at 10^−7 M was more than 60% or the value of IC50 was more than 200 nM.).
For `C[C@@H](NC(=S)NC[C@H]1CC[C@@H](Nc2nc(N(C)C)c3ccccc3n2)CC1)c1ccccc1` [compound 749] the value was 3 (Class 3: The value of percent of control at 10^−7 M was more than 60% or the value of IC50 was more than 200 nM.); for `CCCCOC(=O)c1ccccc1NC(=O)NC[C@H]1CC[C@@H](Nc2nc(N(C)C)c3ccccc3n2)CC1` [compound 750], 3 (Class 3: The value of percent of control at 10^−7 M was more than 60% or the value of IC50 was more than 200 nM.).
For `COC(=O)c1cc(NC(=O)NC[C@H]2CC[C@@H](Nc3nc(N(C)C)c4ccccc4n3)CC2)cc(C(=O)OC)c1` [compound 751] the value was 3 (Class 3: The value of percent of control at 10^−7 M was more than 60% or the value of IC50 was more than 200 nM.); for `CN(C)c1nc(N[C@H]2CC[C@@H](CNC(=O)Nc3ccc(OC(F)(F)F)cc3)CC2)nc2ccccc12` [compound 752], 3 (Class 3: The value of percent of control at 10^−7 M was more than 60% or the value of IC50 was more than 200 nM.); for `Cc1cc(Br)cc(C)c1NC(=O)NC[C@H]1CC[C@@H](Nc2nc(N(C)C)c3ccccc3n2)CC1` [compound 753, N-(4-bromo-2,6-dimethylphenyl)-N′-[(cis-4-{[4-(dimethylamino)quinazolin-2-yl]amino}cyclohexyl)methyl]urea], 1 (Class 1: The value of percent of control at 10^−7 M was less than 40% or the value of IC50 was less than 50 nM.).
The result for `Cc1cc(Br)ccc1NC(=O)NC[C@H]1CC[C@@H](Nc2nc(N(C)C)c3ccccc3n2)CC1` [compound 754] reads 2 (Class 2: The value of percent of control at 10^−7 M was from 40% to 60% or the value of IC50 was from 50 nM to 200 nM.).
As for `CN(C)c1nc(N[C@H]2CC[C@@H](CNC(=O)Nc3ccc4c(c3)C(F)(F)OC(F)(F)O4)CC2)nc2ccccc12` [compound 755, N-[(cis-4-{[4-(dimethylamino)quinazolin-2-yl]amino}-cyclohexyl)methyl]-N′-(2,2,4,4,-tetrafluoro-4H-1,3-benzodioxin-6-yl)urea], the class is recorded as 3 (Class 3: The value of percent of control at 10^−7 M was more than 60% or the value of IC50 was more than 200 nM.).
For `CN(C)c1nc(N[C@H]2CC[C@@H](CNC(=O)NCCc3cccs3)CC2)nc2ccccc12` [compound 757] the value was 3 (Class 3: The value of percent of control at 10^−7 M was more than 60% or the value of IC50 was more than 200 nM.); for `CN(C)c1nc(N[C@H]2CC[C@@H](CNC(=O)Nc3ccc4c(c3)OCCO4)CC2)nc2ccccc12` [compound 758], 3 (Class 3: The value of percent of control at 10^−7 M was more than 60% or the value of IC50 was more than 200 nM.).
For `CC(C)c1cc(Br)c(NC(=O)NC[C@H]2CC[C@@H](Nc3nc(N(C)C)c4ccccc4n3)CC2)c(Br)c1` [compound 759, N-(2,6-dibromo-4-isopropylphenyl)-N′-[(cis-4-{[4-(dimethylamino)quinazolin-2-yl]amino}cyclohexyl)methyl]urea] the value was 2 (Class 2: The value of percent of control at 10^−7 M was from 40% to 60% or the value of IC50 was from 50 nM to 200 nM.); for `CN(C)c1nc(N[C@H]2CC[C@@H](CNC(=O)Nc3ccccc3C#N)CC2)nc2ccccc12` [compound 760], 3 (Class 3: The value of percent of control at 10^−7 M was more than 60% or the value of IC50 was more than 200 nM.); for `CN(C)c1nc(N[C@H]2CC[C@@H](CNC(=O)Nc3cccs3)CC2)nc2ccccc12` [compound 761], 3 (Class 3: The value of percent of control at 10^−7 M was more than 60% or the value of IC50 was more than 200 nM.).
`COc1ccc(NC(=O)NC[C@H]2CC[C@@H](Nc3nc(N(C)C)c4ccccc4n3)CC2)cc1OC1CCCC1` [compound 762]: the class was 3 (Class 3: The value of percent of control at 10^−7 M was more than 60% or the value of IC50 was more than 200 nM.).
For `CN(C)c1nc(N[C@H]2CC[C@@H](CNC(=O)Nc3ccc4c(c3)OCCCO4)CC2)nc2ccccc12` [compound 763] the value was 3 (Class 3: The value of percent of control at 10^−7 M was more than 60% or the value of IC50 was more than 200 nM.).
